Legend:
Assay type in all cases: cell-based
[1] = target: T1, ΔF508-CFTR (Homo sapiens, UniProt P13569, DEL508-508); experiment: CFTR cell surface levels using HRP-tagged ΔF508-CFTR expressing CFBE cells, in the presence of a co-corrector; conditions: HRP-tagged ΔF508-CFTR CFBE cells, in the presence of 3 μM co-corrector; for EC50: read-out: EC50
T1 construct: host or cells: CFBE41o-, doxycycline-inducible
In short: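 Chemiluminescent read-out of surface HRP (15 min, dark) after PBS washes. Activity is normalized as 100×(sample−DMSO)/(3 μM co-corrector alone−DMSO).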

[2] = target: T1, ΔF508-CFTR; experiment: CFTR cell surface levels using HRP-tagged ΔF508-CFTR expressing CFBE cells, intrinsic corrector capacity; design: % Activation: concentration or dose not given beside the values; conditions: HRP-tagged ΔF508-CFTR expressing CFBE41o- cells, compound alone (intrinsic corrector capacity), 20 hours at 33° C.; for EC50: read-out: EC50
In short: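 Read-out: chemiluminescent HRP activity of ECL4-HRP-tagged ΔF508-CFTR at the cell surface, 15 min substrate in dark. Normalized as 100×(sample−DMSO)/(positive control−DMSO).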

[3] = target: T2, CFTR ΔF508 (Homo sapiens, UniProt P13569, DEL508-508); experiment: Chronic TECC assay, primary bronchial epithelial cells of CF patients homozygous for CFTR ΔF508 (corrector, co-corrector and potentiator); conditions: chronic TECC, AUC = full area under the curve upon forskolin stimulation; for EC50: read-out: EC50 (nM) (AUC**); for % Activity at 1 μM (AUC**): test compound at 1 μM
T2 construct: bronchial epithelial cells isolated from CF patients homozygous for the CFTR ΔF508 mutation; McGill University; Asterand; University of North Carolina hAEC-CF; host or cells: primary human bronchial epithelial cells from CF patients homozygous for ΔF508, differentiated at air-liquid interface
In short: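 Primary bronchial epithelial cells from ΔF508-homozygous CF patients on collagen IV-coated Transwells were chronically treated with test compound plus corrector and potentiator, which were re-added before recording. Ieq was derived from PD and Rt in NaCl-Ringer, pH 7.4, at 37° C, with apical amiloride and bilateral forskolin, recorded every 2 min over 20 min. Ieq increase was normalized to controls, and EC50 was taken from per-well concentrations.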

T1 sequence (P13569 with tags, fused parts or gaps DEL508-508): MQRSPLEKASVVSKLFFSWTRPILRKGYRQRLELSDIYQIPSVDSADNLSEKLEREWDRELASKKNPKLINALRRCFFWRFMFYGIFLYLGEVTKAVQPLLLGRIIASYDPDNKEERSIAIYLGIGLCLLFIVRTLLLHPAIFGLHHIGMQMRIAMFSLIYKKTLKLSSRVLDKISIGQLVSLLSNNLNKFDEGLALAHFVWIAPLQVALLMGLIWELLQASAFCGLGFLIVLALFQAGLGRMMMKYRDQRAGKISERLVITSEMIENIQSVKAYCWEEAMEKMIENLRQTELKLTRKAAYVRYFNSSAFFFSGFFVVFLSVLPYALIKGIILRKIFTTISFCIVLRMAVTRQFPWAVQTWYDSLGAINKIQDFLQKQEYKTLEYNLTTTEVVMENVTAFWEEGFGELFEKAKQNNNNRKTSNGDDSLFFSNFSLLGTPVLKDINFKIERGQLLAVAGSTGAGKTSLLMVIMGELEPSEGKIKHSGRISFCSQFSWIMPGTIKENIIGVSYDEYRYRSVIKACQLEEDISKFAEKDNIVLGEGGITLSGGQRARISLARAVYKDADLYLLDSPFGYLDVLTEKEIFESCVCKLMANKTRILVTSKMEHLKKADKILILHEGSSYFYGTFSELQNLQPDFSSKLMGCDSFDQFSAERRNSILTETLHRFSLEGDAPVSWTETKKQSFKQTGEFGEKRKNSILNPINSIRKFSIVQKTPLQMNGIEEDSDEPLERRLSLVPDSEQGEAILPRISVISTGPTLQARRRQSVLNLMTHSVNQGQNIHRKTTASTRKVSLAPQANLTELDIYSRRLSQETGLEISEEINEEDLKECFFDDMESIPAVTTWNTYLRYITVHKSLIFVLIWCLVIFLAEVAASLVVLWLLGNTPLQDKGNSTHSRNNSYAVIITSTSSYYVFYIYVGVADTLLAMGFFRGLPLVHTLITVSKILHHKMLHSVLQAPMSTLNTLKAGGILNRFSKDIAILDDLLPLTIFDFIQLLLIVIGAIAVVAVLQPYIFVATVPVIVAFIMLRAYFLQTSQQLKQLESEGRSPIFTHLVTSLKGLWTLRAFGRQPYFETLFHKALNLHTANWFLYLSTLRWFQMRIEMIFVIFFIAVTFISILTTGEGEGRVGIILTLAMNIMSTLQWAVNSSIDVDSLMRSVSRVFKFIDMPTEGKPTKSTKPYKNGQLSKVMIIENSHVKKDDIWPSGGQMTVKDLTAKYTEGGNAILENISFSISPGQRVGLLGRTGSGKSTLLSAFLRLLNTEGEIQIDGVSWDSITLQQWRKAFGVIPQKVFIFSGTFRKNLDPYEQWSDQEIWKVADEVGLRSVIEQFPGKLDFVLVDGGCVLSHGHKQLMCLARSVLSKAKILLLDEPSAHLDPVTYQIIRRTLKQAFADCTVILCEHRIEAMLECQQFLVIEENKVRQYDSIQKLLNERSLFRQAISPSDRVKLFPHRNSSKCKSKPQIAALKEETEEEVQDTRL
T2 sequence (P13569 with tags, fused parts or gaps DEL508-508): as above

Compound	% Activation [1] [%]	EC50 [1] [nM]	% Activation [2] [%]	EC50 [2] [nM]	EC50 [3] [nM]	% Activity at 1 μM (AUC**) [3] [%]
COC1CCN(c2cc(C(=O)NS(C)(=O)=O)nc3c2c(C(C)C)nn3-c2ccnc(N3CCOCC3)c2)CC1 [Compound 187, N-(methanesulfonyl)-4-(4-methoxypiperidin-1-yl)-1-[2-(morpholin-4-yl)pyridin-4-yl]-3-(propan-2-yl)-1H-pyrazolo[3,4-b]pyridine-6-carboxamide]	308.87	69.3	160	223	> 1000	180
COC1CCN(c2cc(C(=O)NS(C)(=O)=O)nc3c2c(C(C)C)nn3-c2ccnc(N3CCCC3)c2)CC1 [Compound 188, N-(methanesulfonyl)-4-(4-methoxypiperidin-1-yl)-3-(propan-2-yl)-1-[2-(pyrrolidin-1-yl)pyridin-4-yl]-1H-pyrazolo[3,4-b]pyridine-6-carboxamide]	405.37	160	214.93	274	–	257.3
CS(=O)(=O)NC(=O)c1cc(N2CCC(S(C)(=O)=O)CC2)c2c(C3CCC3)nn(-c3ccccc3)c2n1 [Compound 190, 3-cyclobutyl-N-(methanesulfonyl)-4-[4-(methanesulfonyl)piperidin-1-yl]-1-phenyl-1H-pyrazolo[3,4-b]pyridine-6-carboxamide]	502.4	1240	284.8	967	51	269
COCC1CN(c2cc(C(=O)NS(C)(=O)=O)nc3c2c(C2CCC2)nn3-c2ccccc2)C1 [Compound 193, 3-cyclobutyl-N-(methanesulfonyl)-4-[3-(methoxymethyl)azetidin-1-yl]-1-phenyl-1H-pyrazolo[3,4-b]pyridine-6-carboxamide]	341.37	589	175.23	1070	–	317.57
CS(=O)(=O)NC(=O)c1cc(OCCC2CCOCC2)c2c(C3CCC3)nn(-c3ccccc3)c2n1 [Compound 198, 3-cyclobutyl-N-(methanesulfonyl)-4-[2-(oxan-4-yl)ethoxy]-1-phenyl-1H-pyrazolo[3,4-b]pyridine-6-carboxamide]	321.57	466	135.73	633	–	477.39
CS(=O)(=O)NC(=O)c1cc(OC[C@@H](F)C2CCOCC2)c2c(C3CCC3)nn(-c3ccccc3)c2n1 [Compound 199, 3-cyclobutyl-4-[(2S)-2-fluoro-2-(oxan-4-yl)ethoxy]-N-(methanesulfonyl)-1-phenyl-1H-pyrazolo[3,4-b]pyridine-6-carboxamide]	304.63	316	142.6	481	> 1000	627.48
CS(=O)(=O)NC(=O)c1cc(OCC2CCOCC2)c2c(C3CCC3)nn(-c3ccccc3)c2n1 [Compound 200, 3-cyclobutyl-N-(methanesulfonyl)-4-[(oxan-4-yl)methoxy]-1-phenyl-1H-pyrazolo[3,4-b]pyridine-6-carboxamide]	318.27	94.8	163.43	316	–	364.3
CS(=O)(=O)NC(=O)c1cc(-c2ccc(N3CCC(C#N)CC3)nc2)c2c(C3CCC3)nn(-c3ccnc(N4CCOCC4)c3)c2n1 [Compound 201, 4-[6-(4-cyanopiperidin-1-yl)pyridin-3-yl]-3-cyclobutyl-N-(methanesulfonyl)-1-[2-(morpholin-4-yl)pyridin-4-yl]-1H-pyrazolo[3,4-b]pyridine-6-carboxamide]	379.9	292	200.8	402	< 300	250
COC1CCN(c2cc(C(=O)NS(=O)(=O)C3CCOCC3)nc3c2c(C2CCC2)nn3-c2ccccc2)CC1 [Compound 207, 3-cyclobutyl-4-(4-methoxypiperidin-1-yl)-N-(oxane-4-sulfonyl)-1-phenyl-1H-pyrazolo[3,4-b]pyridine-6-carboxamide]	284.87	175	141.93	340	–	441.31
COC(=O)N1CCC2CN(c3cc(C(=O)NS(C)(=O)=O)nc4c3c(C3CCC3)nn4-c3ccccc3)CCC21 (stereo not drawn) [Compound 215, methyl 5-{3-cyclobutyl-6-[(methanesulfonyl)carbamoyl]-1-phenyl-1H-pyrazolo[3,4-b]pyridin-4-yl}octahydro-1H-pyrrolo[3,2-c]pyridine-1-carboxylate]	569.35	47.9	374.57	274	45	320
CN(C)C[C@@H](F)C1CCN(c2cc(C(=O)NS(C)(=O)=O)nc3c2c(C2CCC2)nn3-c2ccccc2)CC1 [Compound 219, 3-cyclobutyl-4-{4-[(1S)-2-(dimethylamino)-1-fluoroethyl]piperidin-1-yl}-N-(methanesulfonyl)-1-phenyl-1H-pyrazolo[3,4-b]pyridine-6-carboxamide]	524.4	230	381.1	764	–	298.20
COC(C)(C)C1CCN(c2cc(C(=O)NS(C)(=O)=O)nc3c2c(C(C)C)nn3-c2ccc(F)cc2)CC1 [Compound 221, 1-(4-fluorophenyl)-N-(methanesulfonyl)-4-[4-(2-methoxypropan-2-yl)piperidin-1-yl]-3-(propan-2-yl)-1H-pyrazolo[3,4-b]pyridine-6-carboxamide]	492.2	77.2	322.15	420	40	245.9
COCCS(=O)(=O)NC(=O)c1cc(-c2ccc(N3CCOCC3)cc2)c2c(OC(C)C)nn(-c3ccccc3)c2n1 [Compound 226, N-(2-methoxyethanesulfonyl)-4-[4-(morpholin-4-yl)phenyl]-1-phenyl-3-[(propan-2-yl)oxy]-1H-pyrazolo[3,4-b]pyridine-6-carboxamide]	392.95	386	206.7	445	56	530
CS(=O)(=O)NC(=O)c1cc(N2CCC(OC3CCCC3)CC2)c2c(C3CCC3)nn(-c3ccccc3)c2n1 [Compound 228, 3-cyclobutyl-4-[4-(cyclopentyloxy)piperidin-1-yl]-N-(methanesulfonyl)-1-phenyl-1H-pyrazolo[3,4-b]pyridine-6-carboxamide]	395.1	335	217.9	490	32	240
CS(=O)(=O)NC(=O)c1cc(N2CCC(OC3CCCCC3)CC2)c2c(C3CCC3)nn(-c3ccccc3)c2n1 [Compound 229, 3-cyclobutyl-4-[4-(cyclohexyloxy)piperidin-1-yl]-N-(methanesulfonyl)-1-phenyl-1H-pyrazolo[3,4-b]pyridine-6-carboxamide]	418.65	366	174.2	414	20	430

From patent US10259810B2, “N-sulfonylated pyrazolo[3,4-b]pyridin-6-carboxamides and method of use” (AbbVie S.à.r.l., priority 2015, dated 2019)
